{"source": "ChEMBL document CHEMBL4311943", "about": "“3-[(1S,2S,3R)-2,3-Difluoro-1-hydroxy-7-methylsulfonylindan-4-yl]oxy-5-fluorobenzonitrile (PT2977), a Hypoxia-Inducible Factor 2α (HIF-2α) Inhibitor for the Treatment of Clear Cell Renal Cell Carcinoma” (J Med Chem, 2019)", "key": {"[1]": {"target": "Neuropeptide Y receptor type 2 (Homo sapiens) (UniProt P49146)", "assay": "Activity at human NPY2 receptor at 10 uM"}, "[2]": {"target": "fMet-Leu-Phe receptor (Homo sapiens) (UniProt P21462)", "sequence (P21462 whole entry)": "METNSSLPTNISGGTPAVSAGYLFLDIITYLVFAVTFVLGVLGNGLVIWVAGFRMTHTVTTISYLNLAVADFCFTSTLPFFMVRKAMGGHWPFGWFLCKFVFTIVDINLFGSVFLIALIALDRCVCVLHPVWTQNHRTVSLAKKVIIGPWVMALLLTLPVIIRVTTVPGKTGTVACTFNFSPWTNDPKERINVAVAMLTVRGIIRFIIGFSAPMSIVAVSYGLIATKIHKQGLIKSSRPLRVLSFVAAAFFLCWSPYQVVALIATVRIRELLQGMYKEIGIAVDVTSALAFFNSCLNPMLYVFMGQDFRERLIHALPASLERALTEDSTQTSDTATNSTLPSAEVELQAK", "assay": "Activity at human FPR1 receptor at 10 uM"}, "[3]": {"assay": "Cmin in patient with advanced solid tumor at 120 mg, po administered once daily measured on day 15 measured after 24 hrs", "assay_type": "ADME, organism-based", "details": "human, in vivo, read-out: Cmin"}, "[4]": {"assay": "Protein binding in mouse plasma at 10 uM measured after 4 hrs by LC-MS/MS analysis", "assay_type": "ADME, cell-free", "details": "read-out: PPB (converted)"}, "Cytochrome P450 2C8": {"target": "Cytochrome P450 2C8 (Homo sapiens, UniProt P10632)", "assay": "Inhibition of CYP2C8 in human liver microsomes up to 50 uM using amodiaquine as substrate measured after 10 mins in presence of NADPH by LC-MS/MS analysis", "assay_type": "ADME"}, "Cytochrome P450 2C19": {"target": "Cytochrome P450 2C19 (Homo sapiens, UniProt P33261)", "assay": "Inhibition of CYP2C19 in human liver microsomes up to 50 uM using S-mephenytoin as substrate measured after 20 mins in presence of NADPH by LC-MS/MS analysis", "assay_type": "ADME"}, "[5]": {"assay": "Clearance in CD-1 mouse at 3 mg/kg, iv by UPLC-MS analysis", "assay_type": "ADME, organism-based", "details": "in vivo"}, "[6]": {"assay": "Volume of distribution at steady state in monkey at 1 mg/kg, iv by UPLC-MS analysis", "assay_type": "ADME, organism-based, Macaca mulatta", "details": "rhesus monkey, in vivo, read-out: Vdss"}, "[7]": {"assay": "Dose normalized AUClast in CD-1 mouse at 10 mg/kg, po administered via gavage by UPLC-MS analysis", "assay_type": "ADME, organism-based", "details": "in vivo"}, "[8]": {"assay": "Dose normalized AUClast in monkey at 5 mg/kg, po administered via gavage by UPLC-MS analysis", "assay_type": "ADME, organism-based, Macaca mulatta", "details": "rhesus monkey, in vivo"}, "786-0": {"test_system": "786-0", "assay": "Antitumor activity against human 786-O cells xenografted in SCID Beige mouse assessed as tumor regression at 0.3 to 3 mg/kg, po administered twice daily via gavage for 3 days measured 12 hrs post-last", "assay_type": "functional, organism-based"}, "[9]": {"assay": "Half life in patient with advanced solid tumor at 20 mg, po administered once daily measured on day 15", "assay_type": "ADME, organism-based", "details": "human, in vivo"}, "[10]": {"assay": "Half life in patient with advanced solid tumor at 40 mg, po administered once daily measured on day 15", "assay_type": "ADME, organism-based", "details": "human, in vivo"}, "[11]": {"assay": "Half life in patient with advanced solid tumor at 160 mg, po administered once daily measured on day 15", "assay_type": "ADME, organism-based", "details": "human, in vivo"}, "[12]": {"assay": "Half life in patient with advanced solid tumor at 240 mg, po administered once daily measured on day 15", "assay_type": "ADME, organism-based", "details": "human, in vivo"}, "[13]": {"assay": "Cmax in patient with advanced solid tumor at 40 mg, po administered once daily measured on day 15", "assay_type": "ADME, organism-based", "set-up": "dose 40 mg, route oral", "details": "human, in vivo"}, "[14]": {"assay": "Cmax in patient with advanced solid tumor at 80 mg, po administered once daily measured on day 15", "assay_type": "ADME, organism-based", "set-up": "dose 80 mg, route oral", "details": "human, in vivo"}, "[15]": {"assay": "AUClast in patient with advanced solid tumor at 80 mg, po administered once daily measured on day 15", "assay_type": "ADME, organism-based", "set-up": "dose 80 mg, route oral, time 0 - last", "details": "human, in vivo"}, "[16]": {"assay": "AUClast in patient with advanced solid tumor at 120 mg, po administered once daily measured on day 15", "assay_type": "ADME, organism-based", "set-up": "dose 120 mg, route oral, time 0 - last", "details": "human, in vivo"}, "[17]": {"target": "Muscarinic acetylcholine receptor M2 (Homo sapiens) (UniProt P08172)", "assay": "Activity at human M2 receptor at 10 uM"}, "[18]": {"target": "Muscarinic acetylcholine receptor M3 (Homo sapiens) (UniProt P20309)", "sequence (P20309 whole entry, looked up)": "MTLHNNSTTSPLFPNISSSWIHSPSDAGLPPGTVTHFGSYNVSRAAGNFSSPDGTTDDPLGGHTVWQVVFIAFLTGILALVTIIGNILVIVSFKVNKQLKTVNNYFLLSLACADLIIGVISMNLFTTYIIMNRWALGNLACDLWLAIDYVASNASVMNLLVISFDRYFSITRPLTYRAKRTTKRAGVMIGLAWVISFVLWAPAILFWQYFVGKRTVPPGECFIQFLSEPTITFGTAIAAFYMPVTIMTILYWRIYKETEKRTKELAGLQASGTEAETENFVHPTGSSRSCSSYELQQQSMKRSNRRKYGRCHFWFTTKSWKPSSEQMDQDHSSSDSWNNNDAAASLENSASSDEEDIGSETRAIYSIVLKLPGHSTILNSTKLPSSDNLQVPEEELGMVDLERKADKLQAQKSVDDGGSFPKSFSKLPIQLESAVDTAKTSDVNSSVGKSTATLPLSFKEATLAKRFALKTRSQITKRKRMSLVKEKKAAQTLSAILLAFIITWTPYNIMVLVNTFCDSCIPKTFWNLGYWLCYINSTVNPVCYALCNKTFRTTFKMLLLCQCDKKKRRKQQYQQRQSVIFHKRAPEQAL", "assay": "Activity at human M3 receptor at 10 uM"}, "[19]": {"target": "Adenosine receptor A3 (Homo sapiens) (UniProt P0DMS8)", "assay": "Activity at human adenosine A3 receptor at 10 uM"}, "[20]": {"target": "Cyclin-dependent kinase 1/cyclin B1 (Homo sapiens) (UniProt P06493+P14635)", "assay": "Activity at human CDK1/cyclinB at 10 uM", "assay_type": "protein-complex assay"}, "[21]": {"target": "5'-AMP-activated protein kinase catalytic subunit alpha-1 (Homo sapiens) (UniProt Q13131)", "sequence (Q13131 whole entry, looked up)": "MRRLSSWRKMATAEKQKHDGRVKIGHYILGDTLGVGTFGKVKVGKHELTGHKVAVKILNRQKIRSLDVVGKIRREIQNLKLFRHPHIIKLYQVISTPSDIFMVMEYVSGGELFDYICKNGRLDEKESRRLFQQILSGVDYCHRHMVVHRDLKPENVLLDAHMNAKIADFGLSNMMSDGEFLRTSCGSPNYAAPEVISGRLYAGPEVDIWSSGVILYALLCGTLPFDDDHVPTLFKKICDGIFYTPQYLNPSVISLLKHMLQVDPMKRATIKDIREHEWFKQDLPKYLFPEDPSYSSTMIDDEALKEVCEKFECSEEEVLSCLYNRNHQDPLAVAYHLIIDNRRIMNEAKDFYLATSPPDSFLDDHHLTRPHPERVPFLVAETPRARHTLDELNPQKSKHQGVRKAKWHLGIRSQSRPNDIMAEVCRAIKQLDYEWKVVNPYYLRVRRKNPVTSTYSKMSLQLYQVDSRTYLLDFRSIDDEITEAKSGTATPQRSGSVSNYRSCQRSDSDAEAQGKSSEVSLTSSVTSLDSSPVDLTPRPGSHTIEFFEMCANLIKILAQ", "assay": "Activity at human AMPKalpha1 at 10 uM"}, "[22]": {"target": "Tyrosine-protein kinase ABL1 (Homo sapiens) (UniProt P00519)", "assay": "Activity at human Abl at 10 uM"}, "[23]": {"target": "Sodium channel protein type 5 subunit alpha (Homo sapiens, UniProt Q14524)", "assay": "Activity at human Nav1.5 at 10 uM"}, "[24]": {"target": "Potassium voltage-gated channel subfamily A member 5 (Homo sapiens) (UniProt P22460)", "assay": "Activity at human Kv1.5 at 10 uM"}, "[25]": {"target": "Inward rectifier potassium channel 2 (Homo sapiens, UniProt P63252)", "sequence (P63252 whole entry)": "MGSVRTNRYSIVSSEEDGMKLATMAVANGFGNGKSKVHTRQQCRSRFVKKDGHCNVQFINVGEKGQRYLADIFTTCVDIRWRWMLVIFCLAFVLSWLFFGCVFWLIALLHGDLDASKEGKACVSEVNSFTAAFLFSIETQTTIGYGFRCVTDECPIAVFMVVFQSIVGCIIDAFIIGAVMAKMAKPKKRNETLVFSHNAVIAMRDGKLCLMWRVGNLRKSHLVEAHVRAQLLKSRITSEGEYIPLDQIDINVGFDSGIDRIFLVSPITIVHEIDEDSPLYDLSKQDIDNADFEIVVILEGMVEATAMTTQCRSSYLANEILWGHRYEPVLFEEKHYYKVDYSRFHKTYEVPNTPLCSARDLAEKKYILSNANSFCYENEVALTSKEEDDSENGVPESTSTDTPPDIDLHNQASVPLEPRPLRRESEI", "assay": "Activity at human Kir2.1 at 10 uM"}, "[26]": {"target": "Urotensin-2 receptor (Homo sapiens) (UniProt Q9UKP6)", "assay": "Activity at human GPR14 receptor at 10 uM"}, "[27]": {"target": "Somatostatin receptor type 4 (Homo sapiens) (UniProt P31391)", "sequence (P31391 whole entry)": "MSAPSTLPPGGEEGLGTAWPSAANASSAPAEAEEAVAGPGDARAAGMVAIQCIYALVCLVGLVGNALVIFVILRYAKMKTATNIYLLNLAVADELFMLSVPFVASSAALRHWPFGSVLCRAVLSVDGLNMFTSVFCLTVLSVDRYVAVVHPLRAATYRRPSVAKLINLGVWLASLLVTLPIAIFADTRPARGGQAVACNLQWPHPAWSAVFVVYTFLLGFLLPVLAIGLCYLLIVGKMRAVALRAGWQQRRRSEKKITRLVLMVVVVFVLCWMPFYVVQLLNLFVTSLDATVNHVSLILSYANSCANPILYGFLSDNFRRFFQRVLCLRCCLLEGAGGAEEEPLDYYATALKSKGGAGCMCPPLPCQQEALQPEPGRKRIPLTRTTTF", "assay": "Activity at human SST4 receptor at 10 uM"}, "[28]": {"target": "Prostaglandin E2 receptor EP2 subtype (Homo sapiens) (UniProt P43116)", "assay": "Activity at human Prostanoid EP2 receptor at 10 uM"}, "[29]": {"target": "Orexin/Hypocretin receptor type 1 (Homo sapiens) (UniProt O43613)", "assay": "Activity at human OX1 receptor at 10 uM"}, "[30]": {"target": "Motilin receptor (Homo sapiens) (UniProt O43193)", "assay": "Activity at human MTLR receptor at 10 uM"}, "[31]": {"target": "Leukotriene B4 receptor 1 (Homo sapiens) (UniProt Q15722)", "assay": "Activity at human BLT1 receptor at 10 uM"}, "[32]": {"target": "Histamine H2 receptor (Homo sapiens) (UniProt P25021)", "assay": "Activity at human H2 receptor at 10 uM"}, "[33]": {"target": "Gonadotropin-releasing hormone receptor (Homo sapiens) (UniProt P30968)", "sequence (P30968 whole entry)": "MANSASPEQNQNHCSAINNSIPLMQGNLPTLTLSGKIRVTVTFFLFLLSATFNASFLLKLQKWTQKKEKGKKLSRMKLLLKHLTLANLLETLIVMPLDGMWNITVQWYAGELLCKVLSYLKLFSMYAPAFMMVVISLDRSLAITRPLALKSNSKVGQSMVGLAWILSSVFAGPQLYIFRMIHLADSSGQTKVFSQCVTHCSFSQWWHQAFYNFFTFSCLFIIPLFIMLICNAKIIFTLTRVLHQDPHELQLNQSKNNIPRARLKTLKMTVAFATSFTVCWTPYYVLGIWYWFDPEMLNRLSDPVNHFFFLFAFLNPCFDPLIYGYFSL", "assay": "Activity at human GNRH at 10 uM"}, "[34]": {"target": "Endothelin-1 receptor (Homo sapiens) (UniProt P25101)", "sequence (P25101 whole entry)": "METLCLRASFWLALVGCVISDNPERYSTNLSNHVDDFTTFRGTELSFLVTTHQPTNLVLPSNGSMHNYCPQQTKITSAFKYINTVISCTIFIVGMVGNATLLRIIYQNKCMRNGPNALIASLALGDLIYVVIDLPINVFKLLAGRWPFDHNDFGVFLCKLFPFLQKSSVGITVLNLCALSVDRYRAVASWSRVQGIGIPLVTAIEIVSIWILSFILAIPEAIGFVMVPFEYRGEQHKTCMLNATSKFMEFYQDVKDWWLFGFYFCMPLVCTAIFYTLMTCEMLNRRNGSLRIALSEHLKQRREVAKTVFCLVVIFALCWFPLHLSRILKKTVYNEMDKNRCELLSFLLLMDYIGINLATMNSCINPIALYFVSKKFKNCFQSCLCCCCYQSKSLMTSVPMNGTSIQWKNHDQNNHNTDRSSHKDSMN", "assay": "Activity at human ETA receptor at 10 uM"}, "[35]": {"target": "D(2) dopamine receptor (Homo sapiens) (UniProt P14416)", "assay": "Activity at human D2L receptor at 10 uM"}, "[36]": {"target": "D(1B) dopamine receptor (Homo sapiens) (UniProt P21918)", "sequence (P21918 whole entry)": "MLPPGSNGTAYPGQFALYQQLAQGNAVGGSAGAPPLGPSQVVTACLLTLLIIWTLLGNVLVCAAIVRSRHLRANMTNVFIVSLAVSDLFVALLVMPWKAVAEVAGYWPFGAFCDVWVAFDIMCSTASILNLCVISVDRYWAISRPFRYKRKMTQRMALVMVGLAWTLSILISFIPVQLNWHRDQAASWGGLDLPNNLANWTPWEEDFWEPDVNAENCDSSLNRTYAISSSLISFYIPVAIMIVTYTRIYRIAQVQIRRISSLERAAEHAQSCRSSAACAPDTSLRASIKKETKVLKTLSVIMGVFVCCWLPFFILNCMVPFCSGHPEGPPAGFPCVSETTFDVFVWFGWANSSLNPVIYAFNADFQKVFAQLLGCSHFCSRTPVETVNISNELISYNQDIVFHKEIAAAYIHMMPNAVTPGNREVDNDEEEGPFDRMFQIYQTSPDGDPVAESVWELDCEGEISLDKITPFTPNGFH", "assay": "Activity at human D5 receptor at 10 uM"}, "[37]": {"target": "Gastrin/cholecystokinin type B receptor (Homo sapiens) (UniProt P32239)", "sequence (P32239 whole entry)": "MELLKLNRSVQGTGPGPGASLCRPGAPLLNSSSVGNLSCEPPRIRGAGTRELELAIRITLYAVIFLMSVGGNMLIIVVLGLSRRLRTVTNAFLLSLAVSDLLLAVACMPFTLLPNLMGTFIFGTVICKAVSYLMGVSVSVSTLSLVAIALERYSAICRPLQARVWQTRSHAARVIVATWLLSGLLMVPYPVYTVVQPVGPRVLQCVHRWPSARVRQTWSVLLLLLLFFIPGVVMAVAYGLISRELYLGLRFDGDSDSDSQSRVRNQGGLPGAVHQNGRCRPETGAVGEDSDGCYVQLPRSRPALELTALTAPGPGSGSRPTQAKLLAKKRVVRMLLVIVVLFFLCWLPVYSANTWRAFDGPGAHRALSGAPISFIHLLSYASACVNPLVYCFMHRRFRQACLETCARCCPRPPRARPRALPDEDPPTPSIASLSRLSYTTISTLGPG", "assay": "Activity at human CCK2 receptor at 10 uM"}, "[38]": {"target": "Cannabinoid receptor 2 (Homo sapiens) (UniProt P34972)", "sequence (P34972 whole entry)": "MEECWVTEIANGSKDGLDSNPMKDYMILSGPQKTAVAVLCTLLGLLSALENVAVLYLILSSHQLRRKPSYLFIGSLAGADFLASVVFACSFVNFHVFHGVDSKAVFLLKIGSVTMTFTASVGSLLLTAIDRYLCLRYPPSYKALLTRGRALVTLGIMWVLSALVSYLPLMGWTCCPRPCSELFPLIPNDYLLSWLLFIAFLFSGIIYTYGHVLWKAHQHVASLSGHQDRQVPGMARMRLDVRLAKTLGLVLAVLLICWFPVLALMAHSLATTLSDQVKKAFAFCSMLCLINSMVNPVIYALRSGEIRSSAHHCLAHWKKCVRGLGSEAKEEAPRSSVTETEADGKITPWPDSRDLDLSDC", "assay": "Activity at human CB2 receptor at 10 uM"}, "Homo sapiens": {"organism": "Homo sapiens", "assay": "Activity at human BB2 receptor at 10 uM"}, "[39]": {"target": "Cyclin-dependent kinase 5/CDK5 activator 1 (Homo sapiens) (UniProt Q00535+Q15078)", "assay": "Activity at human CDK5/p25 at 10 uM", "assay_type": "protein-complex assay"}, "[40]": {"target": "Protein kinase C iota type (Homo sapiens) (UniProt P41743)", "sequence (P41743 whole entry)": "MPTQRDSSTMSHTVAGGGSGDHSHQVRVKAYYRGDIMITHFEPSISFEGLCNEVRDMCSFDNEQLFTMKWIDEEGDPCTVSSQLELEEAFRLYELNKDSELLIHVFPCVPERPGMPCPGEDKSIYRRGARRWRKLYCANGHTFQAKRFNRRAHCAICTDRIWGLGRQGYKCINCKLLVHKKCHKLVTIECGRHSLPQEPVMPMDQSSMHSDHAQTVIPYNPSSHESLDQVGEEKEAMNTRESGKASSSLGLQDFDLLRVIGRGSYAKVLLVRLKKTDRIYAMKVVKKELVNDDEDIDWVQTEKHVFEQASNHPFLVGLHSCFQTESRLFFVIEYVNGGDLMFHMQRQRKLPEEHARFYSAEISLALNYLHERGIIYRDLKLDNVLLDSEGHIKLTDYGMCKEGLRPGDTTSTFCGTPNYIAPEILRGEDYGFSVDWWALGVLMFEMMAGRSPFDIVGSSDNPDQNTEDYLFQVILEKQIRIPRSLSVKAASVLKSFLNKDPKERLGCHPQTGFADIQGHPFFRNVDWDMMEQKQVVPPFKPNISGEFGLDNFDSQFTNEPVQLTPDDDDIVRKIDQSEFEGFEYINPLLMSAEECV", "assay": "Activity at human PKCiota at 10 uM"}, "[41]": {"target": "Tyrosine-protein phosphatase non-receptor type 2 (Homo sapiens) (UniProt P17706)", "assay": "Activity at human TCPTP at 10 uM"}, "[42]": {"target": "Beta-2 adrenergic receptor (Homo sapiens) (UniProt P07550)", "assay": "Activity at human beta2 receptor at 10 uM"}}, "note": "Calls of active or inactive are those of the source. No cut-off for these calls is given here.", "data": [{"compound": "CS(=O)(=O)c1ccc(Oc2cc(F)cc(C#N)c2)c2c1[C@H](O)[C@H](F)[C@@H]2F", "note": "[BELZUTIFAN]", "values": [{"measurement": "Activity", "setting": "[1]", "result": "inactive"}, {"measurement": "Activity", "setting": "[2]", "result": "inactive"}, {"measurement": "concentration at 24 h", "setting": "[3]", "result": 500, "unit": "ng/mL"}, {"measurement": "fraction unbound at 4 h, 10 µM", "setting": "[4]", "result": 0.44}, {"measurement": "inhibition (INH)", "setting": "Cytochrome P450 2C8", "result": "Not Active"}, {"measurement": "inhibition (INH)", "setting": "Cytochrome P450 2C19", "result": "Not Active"}, {"measurement": "clearance", "setting": "[5]", "result": 21, "unit": "mL/min/kg"}, {"measurement": "Vd", "setting": "[6]", "result": 2.9, "unit": "L/kg"}, {"measurement": "AUClast/dose", "setting": "[7]", "result": 37, "unit": "µM·h"}, {"measurement": "AUClast/dose", "setting": "[8]", "result": 31, "unit": "µM·h"}, {"measurement": "Activity", "setting": "786-0", "result": "Active"}, {"measurement": "half-life", "setting": "[9]", "result": 12.5, "unit": "h"}, {"measurement": "half-life", "setting": "[10]", "result": 18.8, "unit": "h"}, {"measurement": "half-life", "setting": "[11]", "result": 12.2, "unit": "h"}, {"measurement": "half-life", "setting": "[12]", "result": 14.1, "unit": "h"}, {"measurement": "Cmax", "setting": "[13]", "result": 500, "unit": "ng/mL"}, {"measurement": "Cmax", "setting": "[14]", "result": 1400, "unit": "ng/mL"}, {"measurement": "AUC(0-t)", "setting": "[15]", "result": 17500, "unit": "ng·h/mL"}, {"measurement": "AUC(0-t)", "setting": "[16]", "result": 25900, "unit": "ng·h/mL"}, {"measurement": "Activity", "setting": "[17]", "result": "inactive"}, {"measurement": "Activity", "setting": "[18]", "result": "inactive"}, {"measurement": "Activity", "setting": "[19]", "result": "inactive"}, {"measurement": "Activity", "setting": "[20]", "result": "inactive"}, {"measurement": "Activity", "setting": "[21]", "result": "inactive"}, {"measurement": "Activity", "setting": "[22]", "result": "inactive"}, {"measurement": "Activity", "setting": "[23]", "result": "Not Active"}, {"measurement": "Activity", "setting": "[24]", "result": "inactive"}, {"measurement": "Activity", "setting": "[25]", "result": "Not Active"}, {"measurement": "Activity", "setting": "[26]", "result": "inactive"}, {"measurement": "Activity", "setting": "[27]", "result": "inactive"}, {"measurement": "Activity", "setting": "[28]", "result": "inactive"}, {"measurement": "Activity", "setting": "[29]", "result": "inactive"}, {"measurement": "Activity", "setting": "[30]", "result": "inactive"}, {"measurement": "Activity", "setting": "[31]", "result": "inactive"}, {"measurement": "Activity", "setting": "[32]", "result": "inactive"}, {"measurement": "Activity", "setting": "[33]", "result": "inactive"}, {"measurement": "Activity", "setting": "[34]", "result": "inactive"}, {"measurement": "Activity", "setting": "[35]", "result": "inactive"}, {"measurement": "Activity", "setting": "[36]", "result": "inactive"}, {"measurement": "Activity", "setting": "[37]", "result": "inactive"}, {"measurement": "Activity", "setting": "[38]", "result": "inactive"}, {"measurement": "Activity", "setting": "Homo sapiens", "result": "inactive"}, {"measurement": "Activity", "setting": "[39]", "result": "inactive"}, {"measurement": "Activity", "setting": "[40]", "result": "inactive"}, {"measurement": "Activity", "setting": "[41]", "result": "inactive"}, {"measurement": "Activity", "setting": "[42]", "result": "inactive"}]}]}
